Data as given in patent US9849191B2, “Protein-polymer-drug conjugates” (MERSANA THERAPEUTICS, INC., priority 2013, dated 2017).
Non-standard residues stand in square brackets, D forms with d. Residues, ends and D or L forms follow the SMILES beside them. *: point of attachment. Dolaproine = CO[C@@H]([C@@H]1CCCN1)[C@@H](C)C(=O)O; Dil = CC[C@H](C)[C@H](NC)[C@@H](CC(=O)O)OC; NMe2Val = CC(C)[C@@H](C(=O)*)N(C)C; NH(3-hydroxypropyl) = OCCCN*

Experiment: Tolerability of Auristatin F-hydroxypropylamide (MTD study)
Format: in vivo, mice
Conditions: n=6
Text: The vehicle control group received physiological saline.

**Q.** Which results are given for CC[C@H](C)[C@@H]([C@@H](CC(=O)N1CCC[C@H]1[C@H](OC)[C@@H](C)C(=O)N[C@@H](Cc1ccccc1)C(=O)NCCCO)OC)N(C)C(=O)[C@@H](NC(=O)[C@H](C(C)C)N(C)C)C(C)C [AF-HPA, auristatin F hydroxypropyl amide] (NMe2Val-V[Dil][Dolaproine]F-{NH(3-hydroxypropyl)})?
**A.** Mortality or morbidity (3.2 mg/kg single IV dose): 1 animal died on day 7, 3; Mortality or morbidity (4.7 mg/kg single IV dose): 1 animal died on Day 3, 1
